Assay results reported in PMC4494771, “Synthesis, structure, and biological activity of novel heterocyclic sulfonyl-carboximidamides” (Monatshefte Fur Chemie, 2013).
In brackets after ≈: the same amount, converted by molar mass. Read-outs that look alike come from different tables or passages of the source.

Assays:
P. acnes ATCC 11827 = test: Antibacterial activity, MIC in broth serial dilution; settings: for MIC: Cutibacterium acnes, ATCC11827, 72 h, read-out: MIC P. acnes, P. acnes ATCC 11827, 72 h anaerobic
Experimental: Compounds were tested at serial dilutions in bacterial broth starting at 100 μg/cm^3 (final concentration). P. acnes (ATCC 11827, lot 419697) was grown in thioglycollate nutrient broth (Hardy Diagnostics K29) for 72 h at 33 °C, then inoculated at the density equivalent to 0.5 McFarland standard and incubated with the test materials for another 72 h in an anaerobic environment. […] At the end of the incubation the MIC was assessed optically as the lowest concentration of a test material which caused no bacteria growth [34]. This optical assessment was further confirmed by measuring the absorbance at 655 nm with the BioRad 3550-UV microplate reader. The MIC was defined as at least 50 % inhibition of the increase of OD.

[1] = tested on: panel of 60 human tumor cell lines; test: NCI-60 DTP human tumor cell line screening, whole panel; settings: 10 μM, mean of growth percent for all tested cell lines
A498 = test: NCI-60 DTP human tumor cell line screening; type: cell-based; settings: Homo sapiens; one dose 10 μM, Renal cancer A498; read-out: Growth inhibition ΔGI
MALME-3M = test: NCI-60 DTP human tumor cell line screening; type: cell-based; settings: Homo sapiens; one dose 10 μM, Melanoma MALME-3M; read-out: Growth inhibition ΔGI
[2] = tested on: neonatal human dermal fibroblasts (ATCC PCS-201-010); test: Cytotoxic activity, fibroblast proliferation (sulforhodamine B); type: cell-based; settings: for cytotoxic activity on fibroblast proliferation: 96 h, 6.25–100 μg/cm^3
Experimental: Passage for normal neonatal human dermal fibroblasts (ATCC PCS-201-010, lot 58243223) were grown in DMEM with 5 % calf serum (Hyclone). For the experiment, cells were plated in DMEM/5 % serum at 2,000 cells/well in 96 well plates (plate 598) and were exposed to test materials for 96 h. MAP and bFGF were used as the positive controls and water, 1, 0.5, and 0.25 % DMSO were used as the negative controls. Plate growth was stopped and cells were stained with a sulforhodamine B dye. The dye was then dissolved and a colorimetric signal proportional to total cell/protein count was quantified with the BioRad microplate spectrophotometer 3550-UV at 570 nm with background subtraction at 660 nm and analyzed with Microplate Manager v.2 software for Macintosh (BioRad). Error bars represent standard errors of the mean (SEM). P values representing statistical significance were calculated using the t test.

NCI-H522 = test: NCI-60 DTP human tumor cell line screening; type: cell-based; settings: Homo sapiens; one dose 10 μM, Non-small cell lung cancer NCI-H522; read-out: Growth inhibition ΔGI
HOP-92 = test: NCI-60 DTP human tumor cell line screening; type: cell-based; settings: Homo sapiens; one dose 10 μM, Non-small cell lung cancer HOP-92; read-out: Growth inhibition ΔGI
M. tuberculosis sp. 192 = test: Tuberculostatic activity, classical test-tube method of successive dilution; type: cell-based; settings: Mycobacterium tuberculosis; sp. 192, fully sensitive wild strain
[3] = tested on: Mycobacterium tuberculosis H37Rv strain; test: as above; type: cell-based
SNB-75 = test: NCI-60 DTP human tumor cell line screening; type: cell-based; settings: Homo sapiens; one dose 10 μM, CNS cancer SNB-75; read-out: Growth inhibition ΔGI
UO-31 = test: NCI-60 DTP human tumor cell line screening; type: cell-based; settings: for inhibition at 10 µM: Homo sapiens
[4] = tested on: Mycobacterium tuberculosis H37Rv, sp. 210 and sp. 192; test: Tuberculostatic activity, three tested strains together; type: cell-based
[5] = UO-31, one dose 10 μM, Renal cancer UO-31, read-out: Growth inhibition ΔGI

Structure (SMILES): NC(=NS(=O)(=O)c1ccccc1Cl)c1cnccn1 [Compound 9, N′-[(2-Chlorophenyl)sulfonyl]pyrazine-2-carboximidamide]
- melting point: 173 to 174 °C
- MIC (P. acnes ATCC 11827): > 100 µg/mL

Structure (SMILES): NC(=NS(=O)(=O)c1ccccc1Cl)c1ccncc1 [Compound 5, N′-[(2-Chlorophenyl)sulfonyl]-4-pyridinecarboximidamide]
- melting point: 182 to 185 °C
- MIC (P. acnes ATCC 11827): > 100 µg/mL

Structure (SMILES): N/C(=N\S(=O)(=O)c1cnccc1Cl)c1cccnc1 [Compound 4, (Z)-N′-[(4-Chloropyridin-3-yl)sulfonyl]-3-pyridinecarboximidamide]
- Growth percent mean values (MG_MID) [1]: 104.8%
- inhibition at 10 µM (A498): 24.1%
- inhibition at 10 µM (MALME-3M): 20%
- MIC (P. acnes ATCC 11827): > 100 µg/mL

Structure (SMILES): NC(=NS(=O)(=O)c1ccccc1Cl)c1ccccn1 [Compound 1, N′-[(2-Chlorophenyl)sulfonyl]-2-pyridinecarboximidamide]
- growth inhibitory activity ([2]; 100 μg/cm^3): 88%
- cytotoxic effect ([2]; 6.25–12.5 μg/cm^3): no cytotoxic effect was evident
- cytotoxic activity on fibroblast proliferation [2]: weak inhibitory activity
- melting point: 140 to 142 °C
- MIC (P. acnes ATCC 11827): 12.5 to 50 µg/mL (≈ 42.3 to 169 µM)
- MIC P. acnes (P. acnes ATCC 11827; P. acnes ATCC 11827, 72 h anaerobic): 25 µg/mL (≈ 84.5 µM)

Structure (SMILES): NC(=NS(=O)(=O)c1cnccc1Cl)c1cncc(Cl)n1 [Compound 12, 6-Chloro-N′-[(4-chloropyridin-3-yl)sulfonyl]pyrazine-2-carboximidamide]
- Growth percent mean values (MG_MID) [1]: 97.8%
- inhibition at 10 µM (NCI-H522): 143%
- inhibition at 10 µM (HOP-92): 25.9%
- MIC (P. acnes ATCC 11827): > 100 µg/mL

Structure (SMILES): NC(=NS(=O)(=O)c1cnccc1Cl)c1ccc2ccccc2n1 [Compound 16, N′-[(4-Chloropyridin-3-yl)sulfonyl]quinoline-2-carboximidamide]
- MIC (P. acnes ATCC 11827): > 100 µg/mL

Structure (SMILES): NC(=NS(=O)(=O)c1cnccc1Cl)c1ncccn1 [Compound 8, N′-[(4-Chloropyridin-3-yl)sulfonyl]pyrimidine-2-carboximidamide]
- MIC (M. tuberculosis sp. 192): 50 µg/mL (≈ 168 µM)
- MIC [3]: 50 µg/mL (≈ 168 µM)
- melting point: 162 to 163 °C
- MIC (P. acnes ATCC 11827): > 100 µg/mL

Structure (SMILES): NC(=NS(=O)(=O)c1cnccc1Cl)c1cnccn1 [Compound 10, N′-[(4-Chloropyridin-3-yl)sulfonyl]pyrazine-2-carboximidamide]
- Growth percent mean values (MG_MID) [1]: 101.9%
- MIC (M. tuberculosis sp. 192): 25 µg/mL (≈ 84 µM)
- inhibition at 10 µM (SNB-75): 19.3%
- MIC [3]: 50 µg/mL (≈ 168 µM)
- MIC (P. acnes ATCC 11827): > 100 µg/mL

Structure (SMILES): COc1cncc(C(N)=NS(=O)(=O)c2cnccc2Cl)n1 [Compound 14, N′-[(4-Chloropyridin-3-yl)sulfonyl]-6-methoxypyrazine-2-carboximidamide]
- melting point: 265 to 270 °C (dec.)
- MIC (P. acnes ATCC 11827): > 100 µg/mL

Structure (SMILES): NC(=NS(=O)(=O)c1ccccc1Cl)c1ncccn1 [Compound 7, N′-[(2-Chlorophenyl)sulfonyl]pyrimidine-2-carboximidamide]
- Growth percent mean values (MG_MID) [1]: 103.0%
- MIC (M. tuberculosis sp. 192): 50 µg/mL (≈ 168 µM)
- inhibition at 10 µM (UO-31; [5]): 19.4%
- MIC [3]: 50 µg/mL (≈ 168 µM)
- MIC (P. acnes ATCC 11827): > 100 µg/mL

Structure (SMILES): NC(=NS(=O)(=O)c1ccccc1Cl)c1cncc(Cl)n1 [Compound 11, 6-Chloro-N′-(2-chlorophenylsulfonyl)pyrazine-2-carboximidamide]
- Growth percent mean values (MG_MID) [1]: 102.1%
- inhibition at 10 µM (UO-31; [5]): 19.4 to 21.1%
- Growth inhibition ΔGI (UO-31; one dose 10 μM, Renal cancer UO-31): 22.6%
- inhibition at 10 µM (MALME-3M): 22.6%
- MIC (P. acnes ATCC 11827): > 100 µg/mL

Structure (SMILES): NNC(=O)c1ccncc1 [INH, isoniazid, reference compound]
- MIC (M. tuberculosis sp. 192): 0.5 µg/mL (≈ 3.65 µM)
- MIC [4]: 0.5 to 1 µg/mL (≈ 3.65 to 7.29 µM)
- MIC [3]: 0.5 µg/mL (≈ 3.65 µM)

Structure (SMILES): NC(=NS(=O)(=O)c1cnccc1Cl)c1ccccn1 [Compound 2, N′-[(4-Chloropyridin-3-yl)sulfonyl]-2-pyridinecarboximidamide]
- Growth percent mean values (MG_MID) [1]: 98.2%
- MIC (M. tuberculosis sp. 192): 50 µg/mL (≈ 168 µM)
- cytotoxic activity on fibroblast proliferation [2]: no cytotoxic activity
- inhibition at 10 µM (UO-31; UO-31, read-out: Growth inhibition ΔGI): 20.4%
- MIC [3]: 50 µg/mL (≈ 168 µM)

Structure (SMILES): COc1cncc(C(N)=NS(=O)(=O)c2ccccc2Cl)n1 [Compound 13, N′-(2-Chlorophenylsulfonyl)-6-methoxypyrazine-2-carboximidamide]
- melting point: 227 to 230 °C
- MIC (P. acnes ATCC 11827): > 100 µg/mL

Structure (SMILES): N/C(=N\S(=O)(=O)c1ccccc1Cl)c1cccnc1 [Compound 3, (Z)-N′-[(2-Chlorophenyl)sulfonyl]-3-pyridinecarboximidamide]
- melting point: 188 to 190 °C
- MIC (P. acnes ATCC 11827): > 100 µg/mL

Structure (SMILES): NC(=NS(=O)(=O)c1cnccc1Cl)c1ccncc1 [Compound 6, N′-[(4-Chloropyridin-3-yl)sulfonyl]-4-pyridinecarboximidamide]
- melting point: 215 to 218 °C
- MIC (P. acnes ATCC 11827): > 100 µg/mL
